Source: US10118922B2 (Janssen Pharmaceutica NV, priority 2013, dated 2018)

Biological target: T1, short form of the GPR120 receptor (Homo sapiens, UniProt Q5NUL3)
T1 construct: host or cells: PathHunter CHO-K1 GPR120S β-Arrestin Cell Line
T1 sequence (Q5NUL3 1-361): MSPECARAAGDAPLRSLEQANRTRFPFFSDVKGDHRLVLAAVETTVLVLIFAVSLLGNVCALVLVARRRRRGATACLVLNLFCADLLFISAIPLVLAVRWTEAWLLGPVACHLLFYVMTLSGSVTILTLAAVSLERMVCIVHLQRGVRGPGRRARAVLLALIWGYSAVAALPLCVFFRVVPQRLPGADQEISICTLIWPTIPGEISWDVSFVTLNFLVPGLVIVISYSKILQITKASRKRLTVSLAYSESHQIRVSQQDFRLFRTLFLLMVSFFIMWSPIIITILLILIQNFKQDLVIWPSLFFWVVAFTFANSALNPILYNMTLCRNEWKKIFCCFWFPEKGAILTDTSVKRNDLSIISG
Test: Human GPR120 DiscoveRx PathHunter beta-arrestin assay, Procedure β-arrestin B
Type: cell-based
Settings: PathHunter CHO-K1 GPR120S β-Arrestin cells, 5000 cells/well; read-out: hGPR120 β-arrestin B EC50
Excerpt: The binding of an agonist (medium/long chain fatty acids or small molecule agonists) to the G-protein-coupled receptor GPR120 activates phospholipase C, leading to release of intracellular Ca^+2 through the generation of inositol 1,4,5-trisphosphate (InsP3 or IP3). GPR120 activation can also trigger intracellular signaling via recruitment of Beta-Arrestin. In the present method, agonist-induced activation of the human GPR120 receptor is monitored through the use of PathHunter CHO-K1 GPR120 Beta-Arrestin Cell Line engineered by DiscoveRx, as detailed below. The cell lines are designed to co-express both the ProLink/Enzyme Donor (PK)-tagged GPCR and the Enzyme […] (EA)-tagged Beta-Arrestin fusion proteins. Upon GPR120 receptor stimulation/activation, the EA-tagged Beta-Arrestin portion is translocated to the tagged receptor, where the two enzyme fragments are brought within close proximity. Under these conditions, these fragments can interact and form an active Beta-gal enzyme complex through Enzyme Fragment Complementation (EFC). This active Beta-gal complex can enzymatically hydrolyse the substrate to produce a detectable light signal; therefore, activation as a function of agonist concentration can be expressed as an EC50 value to determine relative compound activities. This in vitro assay therefore serves to assess compound agonist activity of the GPR120.
In Procedure β-arrestin B the cells used were PathHunter CHO-K1 GPR120S β-Arrestin Cell Line, expressing the short form of the GPR120 receptor (Accession #NM 181745), with 5000 cells/well.
The selected CHO-K1 GPR120 β-Arrestin cells were cultured in Ham's F12 media supplemented with 10% fetal bovine serum (FBS), 1% Glutamine, 1×p/s, 800 μg/mL G418 and 300 μg/mL Hygromycin B (for selection). Cell stocks were maintained and grown in a sub-confluent state using standard cell culture procedures. The day before the experiment, the cells were harvested with non-enzymatic cell dissociation buffer and re-suspended in complete growth media at the desired concentration. A Corning 384-plate was then seeded with the proper number of cells in a volume of 25 μL, per well. The seeded plates were incubated overnight at 37° C.
On the day of the experiment, the Assay Buffer containing (a) HBSS with Ca^++ and Mg^++, (b) 20 mM HEPES, and (c) 0.1% BSA stabilizer (pH 7.4) was prepared. The growth medium was gently removed from the cell plates and 20 μL of Assay Buffer added to each well. The plate was then incubated at 37° C. for 60 min. Test compounds were serially diluted in Assay Buffer to desired concentrations (more particularly to one or more of the following μM concentrations: 25, 12.5, 6.25, 3.125, 1.5625, 0.78125, 0.390625, 0.1953125, 0.09765625, 0.048828125, 0.024414063, 0.012207031). Five μL of compound dilution was then added to each well and the plate incubated at 37° C. for 90 min. The detection reagents were prepared according to the manufacture's instruction. Twelve μL of the detection reagents were added to each well and the plate incubated at room temperature for 60 min.
The plates were read on an EnVision instrument, using Protocol name: Luminescence, Plate type: 384 Costar, Measurement height: 3 mm, Measurement time: 1 s, Aperture: 384 Plate aperture. The % activity relative to the positive control was calculated using the following equation:
The % Activity values were plotted versus the concentration of test compound and fitted to a sigmoidal dose-response curve with a Hill slope=1 (fixed value) using nonlinear regression with GraphPad Prism 5.0 to calculate the EC50 values. The Fitting Equation was: Y=Bottom+(Top-Bottom)/(1+10^((Log EC50−X)*HillSlope)), where X is the log of the concentration and Y is the response.

| EC50 | Structure (SMILES) |
| --- | --- |
| 0.068 µM | O=C(O)CCc1cc(F)c(OCc2sc(Cl)cc2-c2ccc(Cl)cc2)c(F)c1 [Cpd 2, 3-(4-{[5-Chloro-3-(4-chlorophenyl)thiophen-2-yl]methoxy}-3,5-difluorophenyl)propanoic acid] |
| 0.322 µM | Cc1sc(-c2ccccc2)c(COc2ccc(CCC(=O)O)c(C)c2C)c1C(F)(F)F [Cpd 33, 3-(2,3-Dimethyl-4-{[5-methyl-2-phenyl-4-(trifluoromethyl)thiophen-3-yl]methoxy}phenyl)propanoic acid] |
| 0.031 µM | OCCCc1cc(F)c(OCc2c(Cl)nsc2-c2ccc(Cl)cc2)c(F)c1 [Cpd 78, 3-(4-{[3-Chloro-5-(4-chlorophenyl)isothiazol-4-yl]methoxy}-3,5-difluorophenyl)propan-1-ol] |
